Reference: patent US7423017B2, “Method for treating cartilage disorders” (Genentech, Inc., priority 1997, dated 2008)
“Also recorded” adds a separate entry of the source. Positions of bridges follow the written chain, without caps; N, C: chain ends. Residues, ends and D or L forms follow the SMILES beside them. No end group written: not given here.

What was measured:
[1] = target: T1, IGFBP-1 (Homo sapiens, UniProt P08833); experiment: biotinylated-IGFBP-1 ELISA plate assay of IGF-I:IGFBP-1 inhibition; type: binding; design: made in house; host or cells: CHO cells
T1 sequence (P08833 26-259): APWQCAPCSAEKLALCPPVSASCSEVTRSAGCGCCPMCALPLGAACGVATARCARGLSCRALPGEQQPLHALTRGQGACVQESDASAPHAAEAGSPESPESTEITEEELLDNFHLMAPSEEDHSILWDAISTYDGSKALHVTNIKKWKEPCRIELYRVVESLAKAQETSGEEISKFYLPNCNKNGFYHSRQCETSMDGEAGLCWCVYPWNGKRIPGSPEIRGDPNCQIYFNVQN
Excerpt: A second series of peptides made use of non-natural amino acids to probe whether other structural features such as an added methyl group at the alpha carbon, or an isomer (D-alanine) could affect peptide binding to IGFBP-1.
BP1-16 (SEQ ID NO:35), a 13-residue version of BP1-01 (lacking the C-terminal Gly), had similar affinity to that of BP1-01. Substitutions at the N-terminus or C-terminus yielded affinity improvements.

[2] = test system: human articular cartilage explants; experiment: human articular cartilage explants: matrix breakdown (proteoglycan release); type: cell-based; settings: peptide 0.1 mg/ml
Description: (§1) The metacarpophalangeal joint of a six-month old pig was cultured as described above for bovine articular cartilage in Example 8. This explant was cultured in media alone or in media with D12K, D12R, or wild-type IGF-1 (at 10 nM) alone or in the presence of IL-1α at 1 ng/ml, as described above. Human explants were from patients undergoing joint replacement surgery. Articular cartilage was harvested, aliquoted (40-45 mg/tube) and cultured as above. […] Fresh media was added on days 0, 1, 2, and 3. Matrix breakdown was determined by measuring the amount of proteoglycans in the media using the DMMB assay as set forth above. Matrix (proteoglycan) synthesis was determined by measuring ^35S-sulfate uptake as set forth above.
(§2) Human articular cartilage explants were cultured in media or treated with IGF-1 by itself or in combination with either BP3-40 or BP3-15 at 0.1 mg/ml as set forth above. Matrix breakdown was determined by measuring the release of proteoglycans into media as described above. Matrix synthesis was determined by counting the amount of ^35S-sulfate incorporated into the cartilage tissue as described above.

[3] = test system: human articular cartilage explants; experiment: human articular cartilage explants from diseased joints: matrix synthesis (35S-sulfate uptake); type: cell-based; settings: for matrix synthesis, IGF-1 in combination with peptide: IGF-1 40 ng/ml, peptide 0.1 mg/ml; for matrix synthesis in diseased human articular cartilage: 40 ng/ml
Description: as §1, §2
The same Material and Methods (for human tissue) were used as described above, using articular cartilage explants from human joints removed from patients undergoing joint replacement. These explants were cultured with IGF-1 alone at 40 ng/ml, or IGF-1 with BP1-17, BP3-15, or BP1-16 (0.1 mg/ml), or IGF-1 with buffer (HEPES).

[4] = target: T1, IGFBP-1; experiment: competitive phage ELISA of IGF-1 mutants, IGFBP-1; type: binding; design: made in house; host or cells: CHO cells; settings: phage display, soluble IGFBP-1 competitor
Summary of the method: (§3)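 Alanine-scan IGF-1 mutants on phage competed with soluble IGFBP-1 or IGFBP-3 (threefold dilutions over six logs, from 5 μM and 500 nM respectively) for binding to plates coated with 1 μg/ml of the same protein in PBS pH 7.2. Incubation was 1 h at room temperature in 0.5% Tween 20/PBS. Bound phage was detected by anti-phage/HRP ELISA; IC50 is the mean±SD of at least two clones.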

[5] = target: T1, IGFBP-1; experiment: BIACORE kinetics: IGFBP-1 binding to immobilized IGF-1 variants; design: made in house; host or cells: CHO cells; settings: 25 C
[6] = target: T2, IGFBP-3 (Homo sapiens, UniProt P17936); experiment: competitive phage ELISA of IGF-1 mutants, IGFBP-3; type: binding; settings: phage display, soluble IGFBP-3 competitor
T2 construct: made in house
T2 sequence (P17936 28-291): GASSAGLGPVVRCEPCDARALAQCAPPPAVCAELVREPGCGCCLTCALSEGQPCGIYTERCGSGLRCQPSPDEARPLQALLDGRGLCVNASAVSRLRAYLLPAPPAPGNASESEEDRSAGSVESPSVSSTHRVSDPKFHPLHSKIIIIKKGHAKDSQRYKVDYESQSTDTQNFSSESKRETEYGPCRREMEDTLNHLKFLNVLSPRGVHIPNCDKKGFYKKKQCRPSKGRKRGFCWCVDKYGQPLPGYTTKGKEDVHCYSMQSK
Summary of the method: as §3

[7] = test system: IGFBP-1; experiment: BIACORE kinetics: IGFBP-1 binding to immobilized IGF-1 variants; design: species or system human; settings: from relative KD values
Description: (§4) The binding affinities of the IGF variants for IGFBP-1 and IGFBP-3 were determined using a BIACORE™-2000 real time kinetic interaction analysis system (Biacore, Inc., Piscataway, N.J.) to measure association (ka) and dissociation (kd) rates. Carboxymethylated dextran biosensor chips (CM5, BIAcore Inc.) were activated with EDC (N-ethyl-N′-(3-dimethylaminopropyl)-carbodiimide hydrochloride) and NHS(N-hydroxysuccinimide) according to the supplier's instructions. For immobilization, IGF mutants in 20 mM sodium acetate, pH 4.8, were injected onto the biosensor chip at a concentration of 50 μg/ml to yield approximately 450-600 RU's (resonance-responce units) of covalently-coupled protein. Unreacted groups were blocked with an injection of 1 M ethanolamine. Kinetic measurements were carried out by injecting two-fold serial dilutions (starting at 1 μM) of either IGFBP-1 or IGFBP-3 in running buffer (PBS, 0.05% TWEEN 20™, 0.1% ovalbumin, 0.1% sodium azide) at 25 °C using a flow rate of 20 μl/min. Association rates (ka) and dissociation rates (kd) were calculated separately using a 1:1 Langmuir™ association model in the BIACORE™ evaluation software v. 3.0. The equilibrium dissociation constant (KD) was calculated as kd/ka.
For measurements of IGFBP-1 binding to IGF-1, kinetics experiments were conducted using a single-cysteine IGF-1 variant, Y31C, that was immobilized onto the sensor chip surface via a disulfide linkage (BIACORE™ System Manual Supplement, 5a-1, Pharmacia (1991)).

[8] = target: T2, IGFBP-3; experiment: BIACORE kinetics: IGFBP-3 binding to immobilized IGF-1 variants; settings: 25 C
Description: as §4

[9] = test system: IGFBP-1; experiment: competitive phage ELISA of IGF-1 mutants, IGFBP-1; type: binding, human; settings: relative IC50 IGFBP-1/relative IC50 IGFBP-3
Summary of the method: as §3

[10] = target: T3, type I IGF receptor (Homo sapiens, UniProt P08069); experiment: KIRA assay of IGF type I receptor activation; type: cell-based; settings: about 13 nM or […] variant
T3 construct: monitors the extent of cytoplasmic IGF receptor phosphorylation upon extracellular stimulation by ligand; endogenous in cells; MCF-7 by my knowledge of the cited method
T3 sequence (P08069 31-736 limits assumed): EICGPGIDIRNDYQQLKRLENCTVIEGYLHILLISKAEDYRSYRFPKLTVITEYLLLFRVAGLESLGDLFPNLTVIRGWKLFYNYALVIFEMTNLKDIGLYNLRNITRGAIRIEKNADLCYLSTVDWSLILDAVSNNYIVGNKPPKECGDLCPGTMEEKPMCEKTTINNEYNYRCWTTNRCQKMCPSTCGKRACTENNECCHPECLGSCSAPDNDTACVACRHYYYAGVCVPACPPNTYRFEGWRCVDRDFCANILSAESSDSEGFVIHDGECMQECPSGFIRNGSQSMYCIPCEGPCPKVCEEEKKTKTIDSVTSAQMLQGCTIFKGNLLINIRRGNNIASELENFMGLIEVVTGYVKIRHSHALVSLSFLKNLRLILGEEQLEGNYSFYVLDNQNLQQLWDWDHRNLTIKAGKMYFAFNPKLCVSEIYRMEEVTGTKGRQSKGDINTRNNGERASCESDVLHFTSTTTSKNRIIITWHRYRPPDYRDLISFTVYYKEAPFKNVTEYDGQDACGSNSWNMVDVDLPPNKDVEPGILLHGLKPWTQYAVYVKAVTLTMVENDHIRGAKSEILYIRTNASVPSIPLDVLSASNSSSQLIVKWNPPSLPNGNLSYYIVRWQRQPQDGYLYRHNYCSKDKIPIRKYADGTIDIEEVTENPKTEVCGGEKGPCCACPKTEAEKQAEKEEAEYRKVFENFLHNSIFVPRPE
Excerpt: The Kinase Receptor Activation Assay (KIRA) specifically and quantitatively monitors the extent of cytoplasmic IGF receptor phosphorylation upon extracellular stimulation by ligand (Sadick et al., J. Pharm. Biomed. Analysis, 19 (6): 883-891 (1999)).

[11] = target: T1, IGFBP-1; experiment: KIRA cell-based assay of IGF-like activity displaced by peptides from IGF-1/IGFBP-1; settings: 2 nM IGF-1, […] IGFBP-1
Description: A cell-based (KIRA) assay was previously described for measuring the amount of IGF-like activity displaced by peptides from mixtures of IGF-1 and binding proteins (Lowman et al., supra, 1998; WO 98/45427, supra). The KIRA assay was used to compare in vitro bioactivity of BP1-16, BP1-02, BP1-25, and BP1-40. […] IGF-1 and peptide were mixed and added to cells expressing IGF receptor for 30 min, then IGFBP-1 was added for an additional 1 h.

[12] = target: T1, IGFBP-1; settings: cited from earlier work
[13] = target: T2, IGFBP-3; experiment: binding curves of phage displaying IGF-1 variants on immobilized IGFBP-1 or IGFBP-3
Excerpt: Phage particles displaying IGF-1 variants in which the aspartate residue at position 12 was mutated to lysine (D12K) or arginine (D12R) were constructed as described in Dubaquié and Lowman, supra. Furthermore, these protein variants were expressed in E. coli and purified as described in Dubaquié and Lowman, supra.
The wild-type IGF-1 phage particles bound to IGFBP-1 or IGFBP-3 generated similar detection signal intensities.

[14] = test system: porcine articular cartilage explants; experiment: porcine articular cartilage explants: matrix synthesis; type: cell-based, pig; settings: 10 nM; for IL-1α-induced inhibition of proteoglycan synthesis: IL-1α 1 ng/ml
Description: as §1

[15] = test system: porcine articular cartilage explants; experiment: porcine articular cartilage explants: matrix breakdown; type: cell-based, pig; settings: 10 nM; for IL-1α-induced matrix breakdown: IL-1α 1 ng/ml
Description: as §1

[16] = target: T2, IGFBP-3; experiment: BIACORE competition assay: IGFBP-3 binding to immobilized IGF-1; settings: IGF-1 inhibition; wt = BP3-01-ox
[17] = target: IGFBP-3; experiment: displacement of 125I-IGF-1 from IGFBPs in human serum, size-exclusion chromatography; type: binding; settings: peptide at 0.2 mM
Description: This Example tests an IGFBP-3-specific peptide, BP3-15, for its ability to block the binding of ^125I-IGF-1 in human serum. Human serum was incubated with ^125I-IGF-1 ± the peptide and the amount of tracer bound to IGFBPs via size-exclusion chromatography was measured.

Compound: CRAGPLQHLCEKYF [BP1-24]
- Fold potency reduction IC50 (mut) / IC50 (BP1-16) [1]: < 10

Compound: CC(=O)N[C@@H](CO)C(=O)N[C@@H](CCC(=O)O)C(=O)N[C@@H](CCC(=O)O)C(=O)N[C@H](C(=O)N[C@H]1CSSC[C@@H](C(=O)N[C@@H](CC(N)=O)C(N)=O)NC(=O)[C@H](CC(C)C)NC(=O)[C@H](Cc2ccc(O)cc2)NC(=O)[C@H](Cc2c[nH]c3ccccc23)NC(=O)[C@H](CCC(=O)O)NC(=O)[C@H](C)NC(=O)[C@H](C(C)C)NC(=O)[C@@H]2CCCN2C(=O)[C@H](Cc2c[nH]c3ccccc23)NC1=O)C(C)C [BP3-40] (Ac-SEEVCWPVAEWYLCN-NH2; disulfide 5-14)
- matrix breakdown, IGF-1 in combination with peptide [2]: appeared to enhance the ability of IGF-1 to decrease matrix breakdown
- matrix synthesis, IGF-1 in combination with peptide [3]: to stimulate matrix synthesis

Compound: F16A: IGF-1 single alanine mutant
- IC50 [4]: 57.8 ± 20.1 nM
- Binding to IGFBP-1 ka [5]: 1.9 ± 0.6 ×10^4 M^−1s^−1
- IC50 [6]: 1.32 ± 0.25 nM
- Specificity Relative BP-1 / Relative BP-3 [7]: 3.6
- Binding to IGFBP-3 ka [8]: 1.1 ± 0.4 ×10^5 M^−1s^−1
- relative specificity [9]: 4.0
- IGF type I receptor activation, single-concentration KIRA [10]: retain biological activity

Compound: CRAGPLQWLCEKYF-nh2 (CRAGPLQWLCEKYF-NH2; disulfide 1-10 (inferred)) [BP1-16]
- EC20 (concentration at which 20% of maximal IGF-1 activity is observed) [11]: 150 to 200 nM
- Fold potency reduction IC50 (mut) / IC50 (BP1-16) [1]: -1-
- matrix synthesis, IGF-1 in combination with peptide [3]: enhance anabolism

Compound: R50A: IGF-1 single alanine mutant
- decrease in affinity for IGFBP-1 [12]: 3 fold
- IC50 [4]: 16.2 ± 1.8 nM
- IC50 [6]: 0.64 ± 0.18 nM
- relative specificity [9]: 2.3

Compound: D12R: IGF-1 variant, aspartate at position 12 mutated to arginine
- phage binding signal intensity, IGFBP-3 versus IGFBP-1 [13]: displayed lower signal intensities when binding to IGFBP-3 compared to IGFBP-1
- matrix synthesis [14]: increased matrix synthesis
- IL-1α-induced inhibition of proteoglycan synthesis [14]: prevented IL-1α-induced inhibition of proteoglycan synthesis
- cartilage matrix breakdown [15]: inhibited cartilage matrix breakdown
- IL-1α-induced matrix breakdown [15]: inhibited the catabolic effects
- matrix synthesis in diseased human articular cartilage [3]: stimulated matrix synthesis in diseased human articular cartilage

Compound: F25A: IGF-1 single alanine mutant
- IC50 [4]: 181 ± 46 nM
- Binding to IGFBP-1 ka [5]: 1.5 ± 0.5 ×10^4 M^−1s^−1
- IC50 [6]: 3.69 ± 0.25 nM
- Specificity Relative BP-1 / Relative BP-3 [7]: 4.9
- Binding to IGFBP-3 ka [8]: 1.5 ± 0.5 ×10^5 M^−1s^−1
- IGF type I receptor activation, single-concentration KIRA [10]: retain biological activity

Compound: D12K: IGF-1 variant, aspartate at position 12 mutated to lysine
- phage binding signal intensity, IGFBP-3 versus IGFBP-1 [13]: displayed lower signal intensities when binding to IGFBP-3 compared to IGFBP-1
- matrix synthesis [14]: increased matrix synthesis
- IL-1α-induced inhibition of proteoglycan synthesis [14]: prevented IL-1α-induced inhibition of proteoglycan synthesis
- cartilage matrix breakdown [15]: inhibited cartilage matrix breakdown
- IL-1α-induced matrix breakdown [15]: inhibited the catabolic effects
- matrix synthesis in diseased human articular cartilage [3]: stimulated matrix synthesis in diseased human articular cartilage

Compound: CC(C)C[C@@H]1NC(=O)[C@H](Cc2ccc(O)cc2)NC(=O)[C@H](Cc2c[nH]c3ccccc23)NC(=O)[C@H](CCC(=O)O)NC(=O)[C@H](C)NC(=O)[C@H](C(C)C)NC(=O)[C@@H]2CCCN2C(=O)[C@H](Cc2c[nH]c3ccccc23)NC(=O)[C@@H](NC(=O)[C@@H](NC(=O)[C@H](CCC(=O)O)NC(=O)[C@H](CCC(=O)O)NC(=O)[C@@H](N)CO)C(C)C)CSSC[C@@H](C(=O)N[C@@H](CC(N)=O)C(=O)O)NC1=O [BP3-15] (H-SEEVCWPVAEWYLCN-OH; disulfide 5-14; N-terminus and C-terminus assumed)
- IC50 (mut) / IC50 (wt) [16]: 0.36
- 125I-IGF-1 binding to the 44-KD IGFBPs [17]: did not decrease
- decrease in 125I-IGF-1 associated with the 150-KD IGF/IGFBP-3/ALS complex [17]: ~42%
- increase in the amount of free 125I-IGF-1 [17]: 59%
- matrix breakdown, IGF-1 in combination with peptide [2]: appeared to enhance the ability of IGF-1 to decrease matrix breakdown
- matrix synthesis, IGF-1 in combination with peptide [3]: to stimulate matrix synthesis; also recorded: enhance anabolism
